In patent US4482551A, “Cephalosporin derivatives” (Hoffmann-La Roche Inc., priority 1982, dated 1984):
Structures can show the parent of a compound that is named as a salt. Where two headings read alike, the source gives them in different places.

Assays:
Enterobacter cloacae = assay: Activity in vitro: Minimum inhibitory concentration; format: cell-based; settings: read-out: Minimum inhibitory concentration
From the text: (§1) Activity in vitro: Minimum inhibitory concentration

Escherichia coli = assay: as above; format: cell-based; settings: read-out: Minimum inhibitory concentration
From the text: as §1

Haemophilus influenzae = assay: as above; format: cell-based; settings: read-out: Minimum inhibitory concentration
From the text: as §1

Neisseria gonorrhoeae = assay: as above; format: cell-based; settings: read-out: Minimum inhibitory concentration
From the text: as §1

Proteus mirabilis = assay: as above; format: cell-based; settings: read-out: Minimum inhibitory concentration
From the text: as §1

Proteus vulgaris = assay: as above; format: cell-based; settings: read-out: Minimum inhibitory concentration
From the text: as §1

[1] = system: Pseudomonas aeruginosa strain 1; assay: as above; format: cell-based
From the text: as §1

[2] = system: Pseudomonas aeruginosa strain 2; assay: as above; format: cell-based
From the text: as §1

Serratia marcescens = assay: as above; format: cell-based; settings: read-out: Minimum inhibitory concentration
From the text: as §1

Staphylococcus aureus = assay: as above; format: cell-based; settings: read-out: Minimum inhibitory concentration
From the text: as §1

Toxicity (LD100) = format: in vivo
[3] = in vitro, lactamase forming strain

With `CO/N=C(\C(=O)N[C@@H]1C(=O)N2C(C(=O)O)=C(CSc3nc(=O)c(C)nn3C)CS[C@H]12)c1csc(N)n1` [Product B, (6R,7R)-7-[2-(2-amino-4-thiazolyl-2-[(Z)-methoxyimino]acetamido]-3-[[(2,5-dihydro-2,6-dimethyl-5-oxo-as-triazin-3-yl)thio]methyl]-8-oxo-5-thia-1-azabicyclo[4.2.0]oct-2-ene-2-carboxylic acid sodium salt] the MIC (Enterobacter cloacae; [3]) was 2.5 µg/mL, the MIC (Escherichia coli; [3]) was 0.08 µg/mL and the MIC (Haemophilus influenzae; in vitro) was 0.02 µg/mL. The MIC (Neisseria gonorrhoeae; in vitro) was 0.02 µg/mL, the MIC (Proteus mirabilis; [3]) was 0.08 µg/mL and the MIC (Proteus vulgaris; [3]) was 0.02 µg/mL. It also gave an MIC ([1]; in vitro, Pseudomonas aeruginosa strain 1, lactamase forming strain, read-out: Minimum inhibitory concentration) of 80 µg/mL, an MIC ([2]; in vitro, Pseudomonas aeruginosa strain 2, lactamase forming strain, read-out: Minimum inhibitory concentration) of 80 µg/mL and an MIC (Serratia marcescens; [3]) of 0.32 µg/mL. For the same molecule, the MIC (Staphylococcus aureus; in vitro) was 2.5 µg/mL, the LD100 (Toxicity (LD100); i.v.) was 500 mg/kg and the LD100 (Toxicity (LD100); p.o.) was greater than 5000 mg/kg. The LD100 (Toxicity (LD100); s.c.) was greater than 4000 mg/kg.

`CO/N=C(\C(=O)N[C@@H]1C(=O)N2C(C(=O)[O-])=C(CSc3nc(=O)cnn3C)CS[C@H]12)c1csc(N)n1.[Na+]` gave an MIC (Enterobacter cloacae) of 2.5 µg/mL, an MIC (Escherichia coli) of 0.04 µg/mL and an MIC (Haemophilus influenzae) of 0.02 µg/mL. For the same molecule, the MIC (Neisseria gonorrhoeae) was 0.02 µg/mL, the MIC (Proteus mirabilis) was 0.04 µg/mL and the MIC (Proteus vulgaris) was 0.02 µg/mL. For the same molecule, the MIC ([1]; Pseudomonas aeruginosa, 1, read-out: Minimum inhibitory concentration) was 40 µg/mL, the MIC ([2]; Pseudomonas aeruginosa, 2, read-out: Minimum inhibitory concentration) was 40 µg/mL and the MIC (Serratia marcescens) was 0.16 µg/mL. It also gave an MIC (Staphylococcus aureus) of 2.5 µg/mL, an LD100 (Toxicity (LD100); i.v.) of 1000 mg/kg and an LD100 (Toxicity (LD100); p.o.) greater than 5000 mg/kg. It also gave an LD100 (Toxicity (LD100); s.c.) greater than 5000 mg/kg.
